Reference: patent US5182367A, “5-lipoxygenase activating protein” (priority 1990, dated 1993)

Key:
[1] = target: T1, 18kD protein (FLAP) (Homo sapiens, UniProt P20292); assay: photoaffinity labelling of the 18kD protein with 125I-L-669,083; assay type: binding; details: for inhibition of photoaffinity labelling of the 18kD protein: 125I-L-669,083 probe, result in words
T1 construct: Incubation of ^125 I-L-669,083 with neutrophil extracts followed by irradiation with ultraviolet light; from tissue; host or cells: neutrophil extracts / human leukocyte membranes (endogenous protein)
T1 sequence (P20292 1-161): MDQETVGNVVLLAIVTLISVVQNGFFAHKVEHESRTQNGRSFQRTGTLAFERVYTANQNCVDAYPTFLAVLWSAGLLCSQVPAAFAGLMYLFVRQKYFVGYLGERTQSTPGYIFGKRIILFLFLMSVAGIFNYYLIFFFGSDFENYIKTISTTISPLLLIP
Excerpt: The cellular target of MK-886 was identified by its specific labelling with an I^125 radio-labelled photoaffinity probe (^125 I-L-669,083) and by its retention on agarose gels to which analogues of MK-886 had been bound. […] This protein co-migrated on SDS-polyacrylamide gels with the photoaffinity-labelled protein. The 18kD protein comprised a minor portion of the […]-centrifugation pellet protein and was essentially absent from other cellular fractions.
A polyclonal rabbit antibody was prepared to the N-terminal 39 amino acids of the 18kD protein. The peptide immunogen was prepared by fusion of the DNA sequence coding for the peptide to the N-terminus of Che Y protein, and its expression in and purification from E. coli (Gan, Z. R., Gene 79, 159-166 (1989)). […] When human leukocyte membranes labelled with the ^125 I-L-669,083 photoaffinity probe were immunoprecipitated with the antipeptide antibody, a single labelled protein of Mr 18,000 was observed which was absent in membranes labelled in the presence of competing MK-886.

[2] = test system: leukotriene biosynthesis; assay: leukotriene biosynthesis / production (cells not specified); assay type: cell-based; details: result in words, cells not given
[3] = target: T2, 18kD protein (FLAP) (Rattus norvegicus, UniProt P20291); assay: elution of the 18kD protein from MK-886 analogue affinity columns; assay type: binding, rat and human; details: solubilized neutrophil membranes, result in words
T2 sequence (P20291 1-161): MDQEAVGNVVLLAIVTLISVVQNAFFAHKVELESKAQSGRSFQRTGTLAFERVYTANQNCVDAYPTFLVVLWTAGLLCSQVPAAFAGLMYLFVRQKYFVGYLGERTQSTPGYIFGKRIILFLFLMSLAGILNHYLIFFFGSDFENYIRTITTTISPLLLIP
Experimental: Rat peritoneal neutrophils (Ham, E. A. et al. Proc. Natn. Acad. Sci. USA 80, 4349-4353 (1983)) and human peripheral neutrophils (Boyum, A. Scand. J. Clin. Lab. Invest. (suppl. 97) 21, 77-89 (1968)) at 10^8 cells/ml were sonicated in 50 mM Tris-HCl buffer, pH 7.4, 140 mM NaCl, 2 mM EDTA, 1 mM DTT (dithiotreitol), 10% glycerol (homogenization buffer), together with the protease inhibitors 1 mM phenylmethylsulphonyl fluoride, […], and 10 mM furyl saccharine. After removal of 1000 g and 10,000 g-centrifugation pellets, the 100,000 g pellet was resuspended (3 mg/ml) in the homogenization buffer.
To purify FLAP, the microsome suspension was solubilized on ice for 30 minutes in 50 mM Tris-HCl buffer, pH 7.4, with 140 mM NaCl, 0.5 mM DTT, 5% glycerol and 1% CHAPS detergent (3-[(3-cholamidopropyl)-dimethylammonio]-1-propanesulfonate). After centrifugation for 10 minutes at 30,000 g, the supernatant was applied to 3 ml columns (6×10^9 cell equivalents per column) containing the affinity gel which was prepared by coupling MK-886 in THF (tetrahydrofuran) to pre-activated Affi-Gel 10, capping with ethanolamine,and washing with isopropanol. The columns were washed with […] solubilization buffer for 16 hours at 5° C. and eluted for 1 hour with four column volumes of buffer containing 100 μM MK-886.

[4] = test system: osteosarcoma 143 cell line expressing 5-LO and FLAP; assay: A23187-stimulated LT synthesis in the 5-LO/FLAP cell line; assay type: cell-based, human
Experimental: (§1) When the parental osteosarcoma 143 cells or the cells expressing 5-LO or FLAP alone were treated with the Ca^2+ ionophore A23187, no arachidonic acid metabolites were detected. […] A23187-treated rat neutrophils produced these products, as well as 5-HETE and the LTB4 metabolites 20-hydroxy LTB4 and 20-carboxy LTB4. The 5-LO/FLAP cell line produced only 14% of the neutrophil level of LTB4 (0.15 nmol/mg protein versus 1.1 nmol/mg protein), while it produced 41% as much of the LTA4 hydrolysis products (0.064 nmol 6-trans LTB4 and 0.059 nmol 6-trans-12-epi LTB4 /mg protein versus 0.18 nmol 6-trans LTB4 and 0.12 nmol 6-trans-12-epi LTB4 /mg protein).
(§2) Normal rat peritoneal neutrophils were prepared as described by Ham, E. A. et al. (1983, supra). Osteosarcoma 143 cell lines expressing 5-LO were isolated by the method of Rouzer, C. A. et al., J. Biol. Chem. 263, 10135-10140 (1988). The expression vector used contains the CMV immediate early promoter which drives the expression of the 5-LO gene, a hygromycin resistance gene as a selectable marker, and the EBV origin of replication (Rouzer et al., supra). An EcoRI fragment derived from the RBL-1 cDNA clone containing the cDNA insert for rat FLAP was cloned into the EcoRI site of the vector pSVLneo (Dixon, R. A. F. et al., Nature 326, 73-79 (1987)). […]

[5] = test system: rat peritoneal neutrophils; assay: A23187-stimulated LT synthesis in neutrophils; assay type: cell-based
Experimental: as §1, §2

[6] = test system: leukotriene synthesis in human leukocytes; assay: inhibition of leukotriene synthesis in human leukocytes; assay type: cell-based; details: Leukocyte; human leukocytes at similar protein concentrations

Structure (SMILES) | inhibition of photoaffinity labelling of the 18kD protein [1] | inhibition of leukotriene biosynthesis / production [2] | elution of the 18kD protein from affinity columns/gels [3] | LT synthesis blocked [4] | LT synthesis blocked [5] | IC50 [1] [nM] | IC50 [6] [nM]
CN1CCN(CCCN2c3ccccc3Sc3ccc(C(F)(F)F)cc32)CC1 [trifluoroperazine] | nor inhibited photoaffinity labelling | inhibitory effects on leukotriene production | – | – | – | – | –
COc1ccc2c(c1)c(C(C)C(=O)O)c(C)n2Cc1ccc(Cl)cc1 [L-583,916, 2-(1-p-chlorobenzyl-5-methoxy-2-methylindol-3-yl)propionic acid] | did not inhibit photoaffinity labelling | do not inhibit leukotriene biosynthesis | nor did they elute this protein | – | – | – | –
COc1ccc2nc3cc(OC)c(=O)c(Br)c-3sc2c1 [L-651,392] | nor inhibited photoaffinity labelling | inhibitory effects on leukotriene production | neither eluted the 18kD protein | – | – | – | –
O=c1ccc2nc3ccccc3sc-2c1Cl [L-615,919, 4-chloro-3H-phenothiazin-3-one] | – | – | – | blocked LT synthesis | blocked LT synthesis | – | –
CC(C)c1ccc2c(c1)c(SC(C)(C)C)c(CC(C)(C)C(=O)O)n2Cc1ccc(Cl)cc1 [MK-886, 3-[1-(4-chlorobenzyl)-3-t-butylthio-5-isopropylindol-2-yl]-2,2-dimethylpropanoic acid] | – | – | eluted by MK-886 | blocked LT synthesis | blocked LT synthesis | 80 | 100
Clc1ccc(C(c2ccc(Cl)cc2)n2cc[n+](CC(OCc3ccc(Cl)cc3Cl)c3ccc(Cl)cc3Cl)c2)cc1 (stereo not drawn) [calmidazolium] | nor inhibited photoaffinity labelling | inhibitory effects on leukotriene production | neither eluted the 18kD protein | – | – | – | –
CC(Cc1ccc(O)c(O)c1)C(C)Cc1ccc(O)c(O)c1 (stereo not drawn) [nordihydroguairaretic acid] | nor inhibited photoaffinity labelling | inhibitory effects on leukotriene production | neither eluted the 18kD protein | – | – | – | –
